Laboratory results: patent US8735584B2 (Merck Patent GmbH, priority 2008, dated 2014)

biological target: T1, GST-Aurora A (Homo sapiens, UniProt O14965); assay: Aurora A IC50, Caliper LC3000 mobility shift assay; type: biochemical; details: LC3000 method; 15 uM ATP (the KM value); read-out: Aurora Kinase A Activity (IC50)
T1 construct: N-terminal GST fusion with full length Aurora A (1-403 amino acids); purchased Carna Biosciences 05-101
T1 sequence (O14965 1-403): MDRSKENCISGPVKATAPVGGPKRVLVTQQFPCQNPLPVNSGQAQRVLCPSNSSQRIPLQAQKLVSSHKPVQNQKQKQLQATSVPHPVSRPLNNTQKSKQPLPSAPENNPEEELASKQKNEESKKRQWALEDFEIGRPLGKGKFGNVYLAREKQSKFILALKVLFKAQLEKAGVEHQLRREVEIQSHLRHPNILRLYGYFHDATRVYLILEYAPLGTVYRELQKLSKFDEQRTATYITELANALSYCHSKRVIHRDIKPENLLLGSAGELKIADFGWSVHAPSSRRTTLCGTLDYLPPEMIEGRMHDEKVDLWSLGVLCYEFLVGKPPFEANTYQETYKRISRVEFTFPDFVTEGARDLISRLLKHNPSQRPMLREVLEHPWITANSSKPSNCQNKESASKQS
Description: The Aurora assays described here are performed on two Caliper Life Sciences systems: the LC3000 and the Desktop Profiler. These provide data on enzyme activity via measurement of the relative amounts of phosphorylated or unphosphorylated fluorescently labelled substrate peptide at the end of an enzymatic reaction. These different states of peptide are resolved by applying a potential difference across the sample. The presence of the charged phosphate group on the product (as opposed to the substrate) causes a different peptide mobility between the two peptides. This is visualized by excitation of the fluorescent label on the substrate and product peptides and represented as peaks within the analysis software.
In order to measure inhibitor activity of Aurora A inhibitors in the Caliper Life Sciences LC3000, a TTP Mosquito liquid handling instrument is used to place 0.25 ul of the appropriate concentration of inhibitor in 100% DMSO (for a dose response curve calculation) into each well of a 384-well plate. To this reaction components are added to a final volume of 25 ul: • 0.067 ng/ul GST-Aurora A (Carna Biosciences 05-101. N-terminal GST fusion with full length Aurora A (1-403 amino acids), accession number NP 940835.1). • 15 uM ATP (Fluke, 02055) • 1 mM DTT (Sigma, D0632) • 1 mM MgCl2 (Sigma, M1028) • 1 uM substrate peptide (sequence FITC-LRRASLG-(CONH2), synthesized by Tufts Peptide Synthesis service. • 100 mM HEPES pH 7.5 (Calbiochem, 391338) • 0.015% Brij-35 (Sigma, B4184)
The reaction is incubated for 90 min at 25 C, and then stopped by the addition of 70 ul of Stop buffer (100 mM HEPES pH 7.5, 0.015% Brij-35, 10 mM EDTA (Sigma, E7889)).
The plate is read on a Caliper LC3000 in an Off-Chip mobility shift assay format, using the following parameters for a 12-sipper chip: screening pressure—1.8 psi, upstream voltage—2700, downstream voltage—1000. These conditions cause unphosphorylated substrate and phosphorylated product peptide to resolve as separate peaks allowing direct measurement of percentage of conversion of substrate to product. The percent conversion can be plotted against concentration of inhibitor to produce a sigmoidal dose response curve, from which an 1050 can be calculated using XLFit for Microsoft Excel.
In the desired wells of a 384-well plate, Aurora A (0.067 ng/ul) was incubated with 15 uM ATP (the KM value), 1 mM DTT, 1 mM MgCl2, and 1 uM peptide substrate (sequence FITC-LRRASLG-(CONH2), FITC=fluorescein isothiocyanate) in 100 mM HEPES pH 7.5 and 0.015% Brij-35 buffer. The reaction was incubated for 90 min at 25 C, and then stopped by the addition of 45 ul of Stop buffer (100 mM HEPES ph 7.5, 0.015% Brij-35, 10 mM EDTA).
The plate was read in a Caliper LC 3000 in an Off-Chip mobility shift assay format, using the following parameters: screening pressure—1.8 psi, upstream voltage—2700, downstream voltage—1000. These conditions cause unphosphorylated substrate peptide to resolve as a peak before that of the phosphorylated peptide product.
In the following table “+” means >100 nM, “++” means 11-100 nM, and “+++” means <11 nM.

| SMILES | IC50 [nM] |
| --- | --- |
| CN1CCC(C(=O)Nc2ccc(Nc3ccnc4[nH]c(=O)c5ccccc5c34)cc2)CC1 [Compound 346, 1-Methyl-N-(4-(6-oxo-5,6-dihydrobenzo[c][1,8]naphthyridin-1-ylamino)phenyl)piperidine-4-carboxamide] | > 100 |
| O=C(Nc1ccc(Nc2ccnc3[nH]c(=O)c4ccccc4c23)cc1)C(F)(F)F [Compound 348, 2,2,2-Trifluoro-N-(4-(6-oxo-5,6-dihydrobenzo[c][1,8]naphthyridin-1-ylamino)phenyl)acetamide] | > 100 |
| O=C(CC(F)(F)F)Nc1ccc(Nc2ccnc3[nH]c(=O)c4ccccc4c23)cc1 [Compound 349, 3,3,3-Trifluoro-N-(4-(6-oxo-5,6-dihydrobenzo[c][1,8]naphthyridin-1-ylamino)phenyl)propanamide] | < 11 |
| O=C(Cc1ccccc1)Nc1ccc(Nc2ccnc3[nH]c(=O)c4ccccc4c23)cc1 [Compound 350, N-(4-(6-Oxo-5,6-dihydrobenzo[c][1,8]naphthyridin-1-ylamino)phenyl)-2-phenylacetamide] | 11 to 100 |
| O=C(Nc1ccc(Nc2ccnc3[nH]c(=O)c4ccccc4c23)cc1)C1CC1 [Compound 351, N-(4-(6-Oxo-5,6-dihydrobenzo[c][1,8]naphthyridin-1-ylamino)phenyl)cyclopropanecarboxamide] | 11 to 100 |
| O=C(CC1CC1)Nc1ccc(Nc2ccnc3[nH]c(=O)c4ccccc4c23)cc1 [Compound 352, 2-Cyclopropyl-N-(4-(6-oxo-5,6-dihydrobenzo[c][1,8]naphthyridin-1-ylamino)phenyl)acetamide] | 11 to 100 |
| CN1CCN(Cc2cccc(C(=O)Nc3ccc(Nc4ccnc5[nH]c(=O)c6ccccc6c45)cc3)c2)CC1 [Compound 354, 3-((4-Methylpiperazin-1-yl)methyl)-N-(4-(6-oxo-5,6-dihydrobenzo[c][1,8]naphthyridin-1-ylamino)phenyl)benzamide] | > 100 |
| CN1CCN(Cc2ccccc2C(=O)Nc2ccc(Nc3ccnc4[nH]c(=O)c5ccccc5c34)cc2)CC1 [Compound 355, 2-((4-Methylpiperazin-1-yl)methyl)-N-(4-(6-oxo-5,6-dihydrobenzo[c][1,8]naphthyridin-1-ylamino)phenyl)benzamide] | > 100 |
| O=C(Nc1ccc(Nc2ccnc3[nH]c(=O)c4ccccc4c23)cc1)c1ccccc1OCCCN1CCOCC1 [Compound 357, 2-(3-morpholinopropoxy)-N-(4-(6-oxo-5,6-dihydrobenzo[c][1,8]naphthyridin-1-ylamino)phenyl)benzamide] | > 100 |
| O=C(c1cc(F)cc(F)c1)N1CCC(CNc2ccnc3[nH]c(=O)c4ccccc4c23)C1 (centres unmarked) [Compound 362, 1-((1-(3,5-Difluorobenzoyl)pyrrolidin-3-yl)methylamino)benzo[c][1,8]naphthyridin-6(5H)-one] | > 100 |
| O=C(Nc1ccccc1)C1(CNc2ccnc3[nH]c(=O)c4ccccc4c23)CC1 [Compound 363, 1-((6-Oxo-5,6-dihydrobenzo[c][1,8]naphthyridin-1-ylamino)methyl)-N-phenylcyclopropanecarboxamide] | > 100 |
| O=C(c1ccccc1)N1CC(Nc2ccnc3[nH]c(=O)c4ccccc4c23)C1 [Compound 366, 1-(1-Benzoylazetidin-3-ylamino)benzo[c][1,8]naphthyridin-6(5H)-one] | > 100 |
| O=C(Cc1ccccc1)N1CCC(Nc2ccnc3[nH]c(=O)c4ccccc4c23)C1 (centres unmarked) [Compound 369, 1-(1-(2-Phenylacetyl)pyrrolidin-3-ylamino)benzo[c][1,8]naphthyridin-6(5H)-one] | > 100 |
| O=C(CN1CC(Nc2ccnc3[nH]c(=O)c4ccccc4c23)C1)Nc1ccccc1 [Compound 370, 2-(3-(6-Oxo-5,6-dihydrobenzo[c][1,8]naphthyridin-1-ylamino)azetidin-1-yl)-N-phenylacetamide] | > 100 |
| O=C(CN1CCC(Nc2ccnc3[nH]c(=O)c4ccccc4c23)C1)Nc1ccccc1 (centres unmarked) [Compound 371, 2-(3-(6-Oxo-5,6-dihydrobenzo[c][1,8]naphthyridin-1-ylamino)pyrrolidin-1-yl)-N-phenylacetamide] | > 100 |
| O=C(CN1CCC(Nc2ccnc3[nH]c(=O)c4ccccc4c23)CC1)Nc1ccccc1 [Compound 372, 2-(4-(6-Oxo-5,6-dihydrobenzo[c][1,8]naphthyridin-1-ylamino)piperidin-1-yl)-N-phenylacetamide] | 11 to 100 |
| O=C(CN1CCC(Nc2ccnc3[nH]c(=O)c4ccccc4c23)CC1)Nc1cccc(F)c1 [Compound 373, N-(3-Fluorophenyl)-2-(4-(6-oxo-5,6-dihydrobenzo[c][1,8]naphthyridin-1-ylamino)piperidin-1-yl)acetamide] | 11 to 100 |
| O=C(CN1CCC(Nc2ccnc3[nH]c(=O)c4ccccc4c23)CC1)Nc1ccc(F)cc1 [Compound 374, N-(4-Fluorophenyl)-2-(4-(6-oxo-5,6-dihydrobenzo[c][1,8]naphthyridin-1-ylamino)piperidin-1-yl)acetamide] | 11 to 100 |
| CN(C(=O)CN1CCC(Nc2ccnc3[nH]c(=O)c4ccccc4c23)CC1)c1ccccc1 [Compound 377, N-Methyl-2-(4-(6-oxo-5,6-dihydrobenzo[c][1,8]naphthyridin-1-ylamino)piperidin-1-yl)-N-phenylacetamide] | > 100 |
| O=C(Nc1ccc(Nc2ccnc3[nH]c(=O)c4ccccc4c23)cc1)c1ccc(F)cc1C(F)(F)F [Compound 378, 4-Fluoro-N-[4-(6-oxo-5,6-dihydro-benzo[c][1,8]naphthyridin-1-ylamino)-phenyl]-2-trifluoromethyl-benzamide] | < 11 |
| O=C(Nc1ccc(Nc2ccnc3[nH]c(=O)c4ccccc4c23)cc1)c1ccccc1C(F)(F)F [Compound 379, N-[4-(6-Oxo-5,6-dihydro-benzo[c][1,8]naphthyridin-1-ylamino)-phenyl]-2-trifluoromethyl-benzamide] | < 11 |
| O=C(Nc1ccc(Nc2ccnc3[nH]c(=O)c4ccccc4c23)cc1)c1ccccc1F [Compound 380, 2-Fluoro-N-[4-(6-oxo-5,6-dihydro-benzo[c][1,8]naphthyridin-1-ylamino)-phenyl]-benzamide] | < 11 |
| O=C(Nc1ccc(Nc2ccnc3[nH]c(=O)c4ccccc4c23)cc1)c1cccc(F)c1 [Compound 381, 3-Fluoro-N-[4-(6-oxo-5,6-dihydro-benzo[c][1,8]naphthyridin-1-ylamino)-phenyl]-benzamide] | < 11 |
| O=C(Nc1ccc(Nc2ccnc3[nH]c(=O)c4ccccc4c23)cc1)c1ccc(F)cc1 [Compound 382, 4-Fluoro-N-[4-(6-oxo-5,6-dihydro-benzo[c][1,8]naphthyridin-1-ylamino)-phenyl]-benzamide] | < 11 |
| O=C(Nc1ccc(Nc2ccnc3[nH]c(=O)c4ccccc4c23)cc1)c1ccc(F)c(F)c1 [Compound 384, 3,4-Difluoro-N-[4-(6-oxo-5,6-dihydro-benzo[c][1,8]naphthyridin-1-ylamino)-phenyl]-benzamide] | < 11 |
| O=C(Nc1ccc(Nc2ccnc3[nH]c(=O)c4ccccc4c23)cc1)c1cc(F)cc(F)c1 [Compound 385, 3,5-Difluoro-N-[4-(6-oxo-5,6-dihydro-benzo[c][1,8]naphthyridin-1-ylamino)-phenyl]-benzamide] | < 11 |
